Patent US8471005B2 (Cephalon, Inc., priority 2008, dated 2013)
Where two headings read alike, the source gives them in different places.

How the values were obtained:
JAK2 = molecular target: T1, JAK2 (Homo sapiens, UniProt O60674); assay: Recombinant Human JAK2 Kinase Assay (TRF); assay type: biochemical; conditions: read-out: JAK2 Potency
T1 construct: host or cells: baculovirus expression system
Outline: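 Europium-labelled PY100 antibody reported tyrosine phosphorylation of a Neutravidin-captured biotinyl 15-mer peptide by JAK2 (baculovirus-expressed, 15 ng/ml). Conditions: 20 mM HEPES pH 7.2, 0.2 μM ATP, 1 mM MnCl2, 0.1% BSA, DMSO 2.5% final, 20 min at room temperature.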

ALK = molecular target: T2, ALK (Homo sapiens, UniProt Q9UM73); assay: ALK Kinase Assay (ELISA/TRF, PLC-γ substrate); assay type: biochemical; conditions: read-out: ALK Potency
T2 construct: host or cells: baculovirus expression system
T2 sequence (Q9UM73 19-1620): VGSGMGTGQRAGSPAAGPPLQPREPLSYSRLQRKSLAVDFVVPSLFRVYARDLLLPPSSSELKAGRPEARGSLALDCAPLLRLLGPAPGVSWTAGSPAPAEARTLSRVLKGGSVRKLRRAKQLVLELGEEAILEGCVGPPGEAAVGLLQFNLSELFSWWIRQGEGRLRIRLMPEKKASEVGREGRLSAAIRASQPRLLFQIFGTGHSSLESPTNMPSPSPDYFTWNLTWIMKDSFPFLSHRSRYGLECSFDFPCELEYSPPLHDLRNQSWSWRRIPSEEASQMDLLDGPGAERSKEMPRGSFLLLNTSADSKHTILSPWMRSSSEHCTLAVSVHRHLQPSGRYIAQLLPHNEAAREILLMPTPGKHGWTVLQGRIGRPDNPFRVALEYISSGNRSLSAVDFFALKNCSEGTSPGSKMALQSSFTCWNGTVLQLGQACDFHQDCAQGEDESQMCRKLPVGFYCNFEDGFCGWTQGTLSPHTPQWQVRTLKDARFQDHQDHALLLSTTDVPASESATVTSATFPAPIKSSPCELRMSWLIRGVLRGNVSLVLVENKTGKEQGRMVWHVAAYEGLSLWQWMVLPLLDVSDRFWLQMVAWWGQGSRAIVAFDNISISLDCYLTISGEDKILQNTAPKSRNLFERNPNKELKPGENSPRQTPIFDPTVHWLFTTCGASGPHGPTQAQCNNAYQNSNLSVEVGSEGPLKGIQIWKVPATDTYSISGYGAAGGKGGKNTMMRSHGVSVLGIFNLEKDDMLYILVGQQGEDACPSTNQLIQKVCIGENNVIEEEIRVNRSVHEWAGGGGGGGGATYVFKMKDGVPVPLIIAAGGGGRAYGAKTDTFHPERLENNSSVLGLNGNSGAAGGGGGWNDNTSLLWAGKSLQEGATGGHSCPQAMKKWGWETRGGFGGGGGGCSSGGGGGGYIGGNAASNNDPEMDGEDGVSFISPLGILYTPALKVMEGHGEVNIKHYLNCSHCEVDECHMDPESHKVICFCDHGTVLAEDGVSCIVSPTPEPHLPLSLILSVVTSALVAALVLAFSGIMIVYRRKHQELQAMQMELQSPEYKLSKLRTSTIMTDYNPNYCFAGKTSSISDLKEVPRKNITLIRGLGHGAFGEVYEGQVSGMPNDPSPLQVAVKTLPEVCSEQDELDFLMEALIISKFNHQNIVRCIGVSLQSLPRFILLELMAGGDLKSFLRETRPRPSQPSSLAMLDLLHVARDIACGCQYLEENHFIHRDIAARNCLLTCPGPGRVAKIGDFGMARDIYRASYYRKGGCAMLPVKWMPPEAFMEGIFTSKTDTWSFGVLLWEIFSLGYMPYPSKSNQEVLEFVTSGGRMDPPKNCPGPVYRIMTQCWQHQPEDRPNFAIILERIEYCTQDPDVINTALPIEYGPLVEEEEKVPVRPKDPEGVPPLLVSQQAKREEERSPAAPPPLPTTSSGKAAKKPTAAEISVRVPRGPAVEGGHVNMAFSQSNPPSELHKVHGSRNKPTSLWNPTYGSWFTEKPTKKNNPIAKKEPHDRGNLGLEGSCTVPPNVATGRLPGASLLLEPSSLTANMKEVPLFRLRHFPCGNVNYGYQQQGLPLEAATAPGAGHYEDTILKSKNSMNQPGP
Outline: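 PLC-γ coat 10 μg/mL in TBS; ALK 30 ng/ml added to start; 37° C, 15 min; Eu-N1 PT66 antibody detection (TRF). IC50: % inhibition vs log10 [cpd], variable-slope sigmoidal fit.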

[1] = JAK2 kinase inhibition, 0.2 μM ATP
[2] = ALK kinase inhibition, 1 μM ATP

T1 sequence (O60674 whole entry): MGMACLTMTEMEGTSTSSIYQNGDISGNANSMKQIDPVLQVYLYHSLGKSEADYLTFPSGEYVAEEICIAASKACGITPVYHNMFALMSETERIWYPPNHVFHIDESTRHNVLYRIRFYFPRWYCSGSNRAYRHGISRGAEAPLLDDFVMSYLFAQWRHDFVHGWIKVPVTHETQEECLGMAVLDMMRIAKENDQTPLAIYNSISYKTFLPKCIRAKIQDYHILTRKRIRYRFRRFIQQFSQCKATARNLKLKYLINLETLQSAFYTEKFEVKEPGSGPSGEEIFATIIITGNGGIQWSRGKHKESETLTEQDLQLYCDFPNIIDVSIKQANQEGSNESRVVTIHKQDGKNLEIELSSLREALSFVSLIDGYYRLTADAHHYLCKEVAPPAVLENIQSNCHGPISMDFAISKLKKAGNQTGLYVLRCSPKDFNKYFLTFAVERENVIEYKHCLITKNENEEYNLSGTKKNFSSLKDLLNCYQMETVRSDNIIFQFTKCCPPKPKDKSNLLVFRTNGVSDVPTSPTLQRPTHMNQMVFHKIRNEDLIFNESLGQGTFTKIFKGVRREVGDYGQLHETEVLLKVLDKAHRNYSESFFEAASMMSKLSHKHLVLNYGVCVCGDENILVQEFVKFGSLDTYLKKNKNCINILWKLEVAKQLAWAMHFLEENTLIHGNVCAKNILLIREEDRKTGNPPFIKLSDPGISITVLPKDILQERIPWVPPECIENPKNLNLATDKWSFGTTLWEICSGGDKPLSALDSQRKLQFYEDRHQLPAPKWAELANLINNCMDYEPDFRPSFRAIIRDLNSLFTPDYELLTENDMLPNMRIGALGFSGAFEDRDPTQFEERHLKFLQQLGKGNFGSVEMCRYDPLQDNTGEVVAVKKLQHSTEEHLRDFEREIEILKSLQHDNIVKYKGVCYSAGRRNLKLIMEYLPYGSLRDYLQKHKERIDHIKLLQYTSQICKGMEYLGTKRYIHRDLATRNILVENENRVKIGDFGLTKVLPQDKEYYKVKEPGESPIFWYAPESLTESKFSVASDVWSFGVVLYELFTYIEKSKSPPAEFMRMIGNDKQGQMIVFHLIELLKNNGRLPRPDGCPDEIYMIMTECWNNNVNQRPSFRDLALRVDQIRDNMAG

IC50 (JAK2; [1]) | IC50 (ALK; [2]) | IC50 (JAK2; JAK2 Kinase Inhibition) | IC50 (ALK; ALK Kinase Inhibition) | Structure (SMILES)
< 100 nM | < 100 nM |  |  | COc1ccc(Cl)cc1-c1ccc2cnc(Nc3ccc(C4CCN(C)CC4)cc3)nn12 [Example 1121, [7-(5-Chloro-2-methoxy-phenyl)-pyrrolo[2,1-f][1,2,4]triazin-2-yl]-[4-(1-methyl-piperidin-4-yl)-phenyl]-amine]
100 to 1000 nM | < 100 nM |  |  | COc1cc(C2CCN(CC(N)=O)CC2)ccc1Nc1ncc2ccc(-c3ccccc3C#N)n2n1 [Example 517, 2-(4-{4-[7-(2-Cyano-phenyl)-pyrrolo[2,1-f][1,2,4]triazin-2-ylamino]-3-methoxy-phenyl}-piperidin-1-yl)-acetamide]
 |  | < 100 nM | 100 to 1000 nM | CN1CCN(c2ccc(Nc3ncc4ccc(-c5ccccc5OCC(=O)N(C)C)n4n3)cc2)CC1 [Example 1403, N,N-Dimethyl-2-(2-{2-[4-(4-methyl-piperazin-1-yl)-phenylamino]-pyrrolo[2,1-f][1,2,4]triazin-7-yl}-phenoxy)-acetamide]
 |  | < 100 nM | 1000 to 10000 nM | CN1CCN(c2ccc(Nc3ncc4ccc(CNc5ccccc5)n4n3)cc2)CC1 [Example 363, [4-(4-Methyl-piperazin-1-yl)-phenyl]-(7-phenylaminomethyl-pyrrolo[2,1-f][1,2,4]triazin-2-yl)-amine]
< 100 nM | 1000 to 10000 nM |  |  | CN1CCN(c2cccc(Nc3ncc4ccc(NCc5cccnc5)n4n3)c2)CC1 [Example 1168, N-(2)-[3-(4-Methyl-piperazin-1-yl)-phenyl]-N(7)-pyridin-3-ylmethyl-pyrrolo[2,1-f][1,2,4]triazine-2,7-diamine]
< 100 nM | > 10000 nM |  |  | Cc1nc2ccc(Nc3ncc4ccc(-c5cccc(S(=O)(=O)NC(C)(C)C)c5)n4n3)cc2s1 [Example 572, N-tert-Butyl-3-[2-(2-methyl-benzothiazol-6-ylamino)-pyrrolo[2,1-f][1,2,4]triazin-7-yl]-benzenesulfonamide]
< 100 nM | 100 to 1000 nM |  |  | Cn1cnc2ccc(Nc3ncc4ccc(-c5ccccc5NS(C)(=O)=O)n4n3)cc21 [Example 1310, N-{2-[2-(3-Methyl-3H-benzoimidazol-5-ylamino)-pyrrolo[2,1-f][1,2,4]triazin-7-yl]-phenyl}-methanesulfonamide]
100 to 1000 nM | < 100 nM |  |  | COc1cc(N(C)C(=O)CN2CCOCC2)ccc1Nc1ncc2ccc(-c3ccccc3OC)n2n1 [Example 472, N-{3-Methoxy-4-[7-(2-methoxy-phenyl)-pyrrolo[2,1-f][1,2,4]triazin-2-ylamino]-phenyl}-N-methyl-2-morpholin-4-yl-acetamide]
 |  | < 100 nM | 1000 to 10000 nM | CN1CCN(C(=O)C2CCCN(c3ccc(Nc4ncc5ccc(-c6ccc(S(C)(=O)=O)cc6)n5n4)cc3)C2)CC1 (stereo not shown) [Example 446, (1-{4-[7-(4-Methanesulfonyl-phenyl)-pyrrolo[2,1-f][1,2,4]triazin-2-ylamino]-phenyl}-piperidin-3-yl)-(4-methyl-piperazin-1-yl)-methanone]
< 100 nM | 1000 to 10000 nM |  |  | Cn1cnc(-c2ccc3cnc(Nc4ccc(N5CCOCC5)cc4)nn23)c1 [Example 1045, [7-(1-Methyl-1H-imidazol-4-yl)-pyrrolo[2,1-f][1,2,4]triazin-2-yl]-(4-morpholin-4-yl-phenyl)-amine]
< 100 nM | < 100 nM |  |  | CN1CCN(CC2CCN(c3ccc(Nc4ncc5ccc(-c6cccc(S(=O)(=O)NC(C)(C)C)c6)n5n4)cc3)CC2)CC1 [Example 589, N-tert-Butyl-3-(2-{4-[4-(4-methyl-piperazin-1-ylmethyl)-piperidin-1-yl]-phenylamino}-pyrrolo[2,1-f][1,2,4]triazin-7-yl)-benzenesulfonamide]
 |  | < 100 nM | < 100 nM | COc1ccccc1-c1ccc2cnc(Nc3ccc(N4CCC(C(=O)N5CCN(C)CC5)CC4)cc3)nn12 [Example 444, (1-{4-[7-(2-Methoxy-phenyl)-pyrrolo[2,1-f][1,2,4]triazin-2-ylamino]-phenyl}-piperidin-4-yl)-(4-methyl-piperazin-1-yl)-methanone]
< 100 nM | 100 to 1000 nM |  |  | CC(C)(C)NS(=O)(=O)c1cccc(-c2ccc3cnc(Nc4ccc(C5CCC(O)CC5)cc4)nn23)c1 (stereo not shown) [Example 568, N-tert-Butyl-3-{2-[4-(4-hydroxy-cyclohexyl)-phenylamino]-pyrrolo[2,1-f][1,2,4]triazin-7-yl}-benzenesulfonamide]
100 to 1000 nM | 1000 to 10000 nM |  |  | CS(=O)(=O)Nc1ccncc1-c1ccc2cnc(Nc3ccc(N4CCOCC4)cc3)nn12 [Example 1219, N-{3-[2-(4-Morpholin-4-yl-phenylamino)-pyrrolo[2,1-f][1,2,4]triazin-7-yl]-pyridin-4-yl}-methanesulfonamide]
< 100 nM | 1000 to 10000 nM |  |  | Cc1nc2cc(Nc3ncc4ccc(-c5cccc(S(=O)(=O)NC(C)(C)C)c5)n4n3)ccc2s1 [Example 574, N-tert-Butyl-3-[2-(2-methyl-benzothiazol-5-ylamino)-pyrrolo[2,1-f][1,2,4]triazin-7-yl]-benzenesulfonamide]
< 100 nM | < 100 nM |  |  | COc1ccccc1-c1c(C)c(C)c2cnc(Nc3ccc(N4CCN(C)CC4)cc3)nn12 [Example 1107]
< 100 nM | 1000 to 10000 nM |  |  | CC(C)c1nc2ccc(Nc3ncc4ccc(-c5cccc(S(=O)(=O)NC(C)(C)C)c5)n4n3)cc2[nH]1 [Example 1329, N-tert-Butyl-3-[2-(2-isopropyl-3H-benzimidazol-5-ylamino)-pyrrolo[2,1-f][1,2,4]triazin-7-yl]-benzenesulfonamide]
100 to 1000 nM | < 100 nM |  |  | COc1cc([C@H]2CC[C@H](N3CCOCC3)CC2)ccc1Nc1ncc2ccc(-c3ccccc3OC)n2n1 [Example 1247, N-{2-methoxy-4-[trans-4-(morpholin-4-yl)cyclohexyl]phenyl}-7-(2-methoxyphenyl)pyrrolo[2,1-f][1,2,4]triazin-2-amine]
 |  | 1000 to 10000 nM | > 10000 nM | CN1CCN(c2ccc(Nc3ncc4ccc(-c5ccccc5NC(=O)C(C)(C)C)n4n3)cc2)CC1 [Example 403, 2,2-Dimethyl-N-(2-{2-[4-(4-methyl-piperazin-1-yl)-phenylamino]-pyrrolo[2,1-f][1,2,4]triazin-7-yl}-phenyl)-propionamide]
 |  | < 100 nM | < 100 nM | COc1ccccc1-c1ccc2cnc(Nc3ccc(N4CCN(CC(C)(C)O)CC4)cc3)nn12 [Example 221, 1-(4-{4-[7-(2-Methoxy-phenyl)-pyrrolo[2,1-f][1,2,4]triazin-2-ylamino]-phenyl}-piperazin-1-yl)-2-methyl-propan-2-ol]
 |  | < 100 nM | 1000 to 10000 nM | COc1ccc(-c2ccc3cnc(Nc4ccc5nc(CN6CCOCC6)[nH]c5c4)nn23)cn1 [Example 1513, [7-(6-Methoxy-pyridin-3-yl)-pyrrolo[2,1-f][1,2,4]triazin-2-yl]-(2-morpholin-4-ylmethyl-3H-benzimidazol-5-yl)-amine]
 |  | < 100 nM | 100 to 1000 nM | CNS(=O)(=O)c1cccc(-c2ccc3cnc(Nc4ccc(N5CCOCC5)cc4)nn23)c1 [Example 357, N-Methyl-3-[2-(4-morpholin-4-yl-phenylamino)-pyrrolo[2,1-f][1,2,4]triazin-7-yl]-benzenesulfonamide]
 |  | < 100 nM | > 10000 nM | Fc1cc(Nc2ncc3ccc(-c4cccc(Cl)c4)n3n2)ccc1N1CCOCC1 [Example 187, [7-(3-Chloro-phenyl)-pyrrolo[2,1-f][1,2,4]triazin-2-yl]-(3-fluoro-4-morpholin-4-yl-phenyl)-amine]
< 100 nM | 1000 to 10000 nM |  |  | COc1ccc(CN2CCN(C)CC2)cc1Nc1ncc2ccc(-c3ccccc3OC)n2n1 [Example 495, [2-Methoxy-5-(4-methyl-piperazin-1-ylmethyl)-phenyl]-[7-(2-methoxy-phenyl)-pyrrolo[2,1-f][1,2,4]triazin-2-yl]-amine]
 |  | < 100 nM | 1000 to 10000 nM | Cc1cc(Nc2ncc3ccc(-c4cccc(Cl)c4)n3n2)ccc1N1CCOCC1 [Example 66, [7-(3-Chloro-phenyl)-pyrrolo[2,1-f][1,2,4]triazin-2-yl]-(3-methyl-4-morpholin-4-yl-phenyl)-amine]
< 100 nM | < 100 nM |  |  | CN(c1ccccc1-c1ccc2cnc(Nc3ccc4c(c3)C(C)(C)C(=O)N4)nn12)S(C)(=O)=O [Example 632, N-{2-[2-(3,3-Dimethyl-2-oxo-2,3-dihydro-1H-indol-5-ylamino)-pyrrolo[2,1-f][1,2,4]triazin-7-yl]phenyl}N-methyl-methanesulfonamide]
1000 to 10000 nM | < 100 nM |  |  | COc1cc(C2CCNCC2)ccc1Nc1ncc2ccc(-c3ccccc3N(C)S(C)(=O)=O)n2n1 [Example 819, N-{2-[2-(2-Methoxy-4-piperidin-4-yl-phenylamino)-pyrrolo[2,1-f][1,2,4]triazin-7-yl]-phenyl}-N-methyl-methanesulfonamide]
 |  | < 100 nM | < 100 nM | COc1ccc(Cl)cc1-c1ccc2cnc(Nc3ccc(CN4CCN(C)CC4)cc3)nn12 [Example 354, [7-(5-Chloro-2-methoxy-phenyl)-pyrrolo[2,1-f][1,2,4]triazin-2-yl]-[4-(4-methyl-piperazin-1-ylmethyl)-phenyl]-amine]
1000 to 10000 nM | 1000 to 10000 nM |  |  | COc1cc(C2CCNCC2)ccc1Nc1ncc2ccc(-c3cccc4c3NC(=O)C4)n2n1 [Example 714, 7-[2-(2-Methoxy-4-piperidin-4-ylphenylamino)pyrrolo[2,1-f][1,2,4]triazin-7-yl]-1,3-dihydro-indol-2-one]
